These results are taken from patent US20230250077A1, “SULFONYLBENZAMIDE DERIVATIVE AND CONJUGATE THEREOF, PREPARATION METHOD THEREFOR AND USE THEREOF” (Jiangsu Hengrui Pharmaceuticals Co., Ltd., priority 2020, published 2023).

The subject of data set [1] is NCI-H146 cells. Description: Inhibition of proliferation of NCI-H146 cells (CellTiter-Glo). Type of data set: cell-based. Particulars: Homo sapiens, 72 h, 3 days, read-out: Inhibitory activity IC50 (nM) for the proliferation of NCI-H146 cells. As to the method:
(§1) In vitro inhibitory activity for the proliferation of RS4;11 cells and NCI-H146 cells was tested by the following method.
(§2) Reagents used in this experiment: RPMI-1640 medium (HyCLone, Cat #SH30243018); fetal bovine serum (Gibco, Cat #10099-141); pancreatin (Gibco, Cat #25200-072); Cell Titer-Glo (Promega, Cat #G7571).
(§3) Materials used: RS4;11 cells (Nanjing Kebai Biotechnology Co., Ltd, Cat #CBP60641); and NCI-H146 cells (ATCC, Cat #HTB-173).
(§4) The in vitro cell proliferation assay described below can determine the inhibitory activity of the test compounds for the proliferation of RS4;11 cells and NCI-H146 cells.
(§5) RS4;11 cells (or NCI-H146 cells) were cultured in an RPMI-1640 culture medium containing 10% FBS, and were passaged for 2-3 times a week in a passage ratio of 1:3 or 1:5. During passage, the cells were transferred to a centrifuge tube, and centrifuged at 1200 rpm for 3 min. The supernatant was discarded, and fresh culture medium was added to resuspend the cells. 90 μL of cell suspension was added to a 96-well cell culture plate, wherein RS4;11 cells and NCI-H146 cells were added at a density of 2.22×10^5 cells/mL. Only 100 μL of complete medium (RPMI-1640 medium containing 10% FBS) was added to the periphery of the 96-well plate. The plate was incubated in an incubator for 24 h (37° C., 5% CO2).
(§6) The test sample was diluted to a proper concentration gradient with dimethyl sulfoxide as required for the experiment. 5 μL of the solution of the test compound prepared in a gradient concentration was added to 95 μL of fresh culture medium and mixed uniformly, and then 10 μL of the culture medium containing the above compound was added to a cell culture plate. The cell culture plate was incubated in an incubator for 3 days (37° C., 5% CO2). 50 μL of CellTiter-Glo reagent was added into each well of the 96-well cell culture plate. The plate was let stand for 5-10 min away from the light at room temperature. The chemiluminescence signals were read by a microplate reader (BMG Labtech, model: PHERAstar FS) and the data were processed by GraphPad software.
(In general: Cellular ATP, detected with luciferase, serves as a proxy for viable cell number.)

The subject of data set [2] is RS4;11 cells. Description: Inhibition of proliferation of RS4;11 cells (CellTiter-Glo). Particulars: Homo sapiens, 72 h, 3 days, read-out: Inhibitory activity IC50 (nM) for the proliferation of RS4;11 cells. Type of data set: cell-based. As to the method: as §1, §2, §3, §4, §5, §6
The nature of data set [3]: Pharmacokinetic evaluation in mice (iv, LC/MS/MS plasma). Type of data set: in vivo. Particulars: intravenous administration. On the procedure: The drug concentration in the plasma of the test animals (mice) at different time points after intravenous (iv) administration of compound 10 and AZD4320 was determined by an LC/MS/MS method. The pharmacokinetic behavior of the compounds of the present disclosure in mice was studied and their pharmacokinetic profile was valuated.
18 C57 mice, female, randomly divided into 2 groups, purchased from Zhejiang Vital River Laboratory Animal Technology Co., Ltd, animal production license number: SCXK (Shanghai) 2017-0005.
A certain amount of compound 10 was weighed, dissolved by adding 5% by volume of DMSO and 5% Tween 80 (Shanghai Titan Scientific Co., Ltd.), and then prepared into a 0.1 mg/mL clear solution by adding 90% normal saline. Compound AZD4320 was formulated as with compound 10. […]
The mice were intravenously administered with compound 10, and 0.1 mL of blood was collected before the administration and 5 min, 0.25 h, 0.5 h, 1.0 h, 2.0 h, 4.0 h, 8.0 h, 11.0 h and 24.0 h after the administration, put into an EDTA-K2 anticoagulation tube, centrifuged at 10,000 rpm for 1 min (4° C.). Plasma was separated within 1 hour, and stored at −20° C. for testing. The process from blood collection to centrifugation was performed under an ice bath.
The mice were intravenously administered with compound AZD4320, and 0.1 mL of blood was collected before the administration and 5 min, 0.25 h, 0.5 h, 1.0 h, 2.0 h, 4.0 h, 8.0 h, 11.0 h and 24.0 h after the administration, put into an EDTA-K2 anticoagulation tube, centrifuged at 10,000 rpm for 1 min (4° C.). Plasma was separated within 1 hour, and stored at −20° C. for testing. The process from blood collection to centrifugation was performed under an ice bath.
The content of the test compounds at different concentrations in plasma of mice after the administration was determined: 10 μL of plasma of mice at each time point after the administration was mixed with 200 μL of methanol (containing an internal standard solution camptothecin (100 ng/mL)); the mixture was vortexed for 1 min, and centrifuged for 10 min (18,000 r/min), and 3 μL of supernatant was taken for LC/MS/MS analysis.

Data set [4] concerns SD rats. Description: Toxicity test on SD rats by repeated intravenous administrations for 7 days. Type of data set: in vivo, rat. To be noted: 1 mg/kg intravenously qd. On the procedure:
This experiment was performed to evaluate the toxicity of compound 9 and AZD4320 to SD rats by repeated intravenous administrations for 7 days.
30 SD rats, weighing about 180-200 g and aged 6-7 weeks, half male and half female, purchased from Zhejiang Vital River Laboratory Animal Technology Co., Ltd., SPF grade. Animal certification number: 200917Aazz0619000298 and 20200917Aazz0619000104. Production license number: SCXK (Zhejiang) 2019-0001.
Housing conditions: SPF grade, animals were housed in plastic and transparent rat cages, 2-3 per cage. The room temperature was 20-26° C. and the relative humidity was 40%-70%. The illumination was controlled in a 12/12 light/dark cycle. The granulated feed for mice was freely taken in an unlimited amount.
The rats were randomly divided into the following 3 groups: a vehicle control group, a compound 9-1 mg/kg group and a compound AZD4320-1 mg/kg group, with 6 rats in each group, half male and half female.
Dosage of the test sample for the 7-day toxicity test in rats: 1 mg/kg (qd), for 7 consecutive days. Administration route: intravenously, dosing volume: 10 mL/kg, dosing frequency and dosing period: daily in the morning for 7 days.
Vehicle: 1.5% DMA+98.5% (10% HS-15), wherein DMA is N,N-dimethylacetamide (Shanghai Titan Scientific Co., Ltd., Cat #01013630); and HS-15 is polyethylene glycol stearate 15 (Solutol HS15) (Shanghai Xietai Chemical Co., Ltd., Cat #50253404).
Hitachi 7100 automatic biochemical analyzer
Siemens advia 2120i automatic blood cell analyzer
Sysmex ca1500 automatic coagulation analyzer
The detection results were input and statistically processed by Excel of the computer.
Clinical symptoms, food intake and general visual observation results of dissection were not statistically calculated, and indexes such as body weight, organ weight and clinical examination were counted by using T-test.
SD rats were intravenously administered with 1 mg/kg compound 9 or 1 mg/kg AZD4320 at 5 mL/kg for 7 repeated days.

“Also recorded” adds a separate entry of the source. Marks after values point to notes of the source that are not given here.

As a reminder, the half-life is the time in which the quantity being followed falls by half. With `CN(CCO)CC[C@H](CSc1ccccc1)Nc1ccc(S(=O)(=O)NC(=O)c2ccc(N3CCC([C@@H](O)c4ccccc4-c4ccc(C(F)(F)F)cc4)CC3)cc2)cc1S(=O)(=O)C(F)(F)F` [Example 2-10, 4-(4-((R)-hydroxy(4′-(trifluoromethyl)-[1,1′-biphenyl]-2-yl)methyl)piperidin-1-yl)-N-((4-(((R)-4-((2-hydroxyethyl)(methyl)amino)-1-(phenylthio)butan-2-yl)amino)-3-((trifluoromethyl)sulfonyl)phenyl)sulfonyl)benzamide], the IC50 stood at 4 nM in data set [1] and 1 nM in data set [2]. The “Clearance CLz/F” value in data set [3] (C57 mice, female, dose 1 mg/kg (table)) was 50.3 mL/min/kg. Besides, the “Clearance in mice (in words)” value in data set [3] (mice) was “cleared slowly”. In data set [3] (mice), the “Elimination phase half-life compared with the positive control AZD 4320 (in words)” value is recorded as “longer elimination phase half-life than the positive control AZD 4320”. Moreover, the AUC(0-t) in data set [3] (mouse, plasma, C57 mice, female, dose 1 mg/kg (table), read-out: Area under curve AUC0-t) was found to be 296 ng·h/mL. Moreover, the half-life in data set [3] (mouse, plasma, C57 mice, female, dose 1 mg/kg (table), read-out: Half-life T½ (converted)) is 13 h. Moreover, the MRT inf in data set [3] (mouse, plasma, C57 mice, female, dose 1 mg/kg (table), read-out: Mean retention time MRT 0-∞) came to 7.3 h. Moreover, the concentration at 5 min in data set [3] (mouse, plasma, C57 mice, female, dose 1 mg/kg (table), read-out: Plasma Concentration C5 min) is 608 ng/mL.

In the case of `O=C(NS(=O)(=O)c1ccc(N[C@@H](CSc2ccccc2)C[C@@H]2CCCN2CCO)c(S(=O)(=O)C(F)(F)F)c1)c1ccc(N2CCC([C@@H](O)c3ccccc3-c3ccc(Cl)cc3)CC2)cc1` [Example 2-9, 4-(4-((R)-(4′-chloro-[1,1′-biphenyl]-2-yl)(hydroxy)methyl)piperidin-1-yl)-N-((4-(((R)-1-((S)-1-(2-hydroxyethyl)pyrrolidin-2-yl)-3-(phenylthio)propan-2-yl)amino)-3-((trifluoromethyl)sulfonyl)phenyl)sulfonyl)benzamide], the IC50 in data set [1] came to 7 nM; in data set [2], 1.8 nM. Moreover, the “Clinical observation of the animals during treatment” value in data set [4] is on record as “No significant abnormalities”. In data set [4], the “PLT (10^9/L)” value is given as 1,258.67* 10^9/L. Further, the “Effect on platelets (in words)” value in data set [4] (vs vehicle control, listed as compound 9, 1 mg/kg) is recorded as “slightly reduced but within the background normal range; also recorded: reduces platelets less than the positive control group”.
